One assay concerns liver X receptors. In words: Liver X receptor activity test, (subtype not named). Format: cell-based, human. To be noted: for inverse activation of liver X receptors (in words): summary of Table 1; for activation of liver X receptors (in words): summary of Table 2. How it is done: (§1) (1) Cell culture: human embryonic kidney cells (HEK293T cells) were cultured in DMEM (high glucose) medium containing 10% fetal bovine serum and 1% penicillin-streptomycin under conditions of 37° C. and 5% CO2.
(§2) (2) Transfection: HEK293T cells were seeded in a 96-well plate with a cell density of 2×10^4 cells/well. After 24 hours, the cells were transfected according to instructions of Lipofectamine™ 3000 reagent. The specific steps of transfection were as follows: • (1) adding 15 μL of L3000 reagent to 500 μL of DMEM (high sugar) medium, and vortex oscillating for 2 seconds; • (2) mixing 6.5 μg of pGL3/(DR-4)-c-fos-FF-luc plasmid, 0.13 μg of pCMV/Renilla-luc plasmid, 1.3 μg of pSG5/hLXRα (or pSG5/hLXRβ plasmid), 1.3 μg of pSG5/hRXRα plasmid, and 19 μL of P3000 reagent in 500 μL of DMEM (high sugar) medium; • (3) adding the plasmid mixture to a liposome mixture and standing by at room temperature for 20 minutes; and • (4) adding 10 μL of liposome-DNA solution to each well of the 96-well plate, and gently shaking the 96-well plate to mix well.
(§3) (3) Drug intervention: after 5 hours of transfection, the compounds to be tested were added, and the plate was placed in an incubator to continue culturing for 20 hours.
(§4) (4) Detection: dual-luciferase reporter gene system was used for detection. The specific steps of detection were as follows: • (1) aspirating the original medium in the 96-well plate, adding cell lysate to the 96-well plate at 20 μL/well, and quickly shaking the plate at room temperature for 20 minutes; • (2) adding samples to a 384-well plate at 20 μL/well; • (3) adding firefly luciferase substrate to each well at 10 μL/well, and measuring chemiluminescence after 7 seconds; and • (4) adding Renilla luciferase substrate to the same sample well at 100 μL/well, and measuring chemiluminescence after 7 seconds.
(§5) Result processing: the results were analyzed using Renilla luciferase activity to correct the firefly luciferase activity.

The next assay has as its target T1, LXRα (Homo sapiens, UniProt Q13133).
T1 construct: expressed in transfected cells; host or cells: HEK293T
T1 sequence (Q13133 1-447): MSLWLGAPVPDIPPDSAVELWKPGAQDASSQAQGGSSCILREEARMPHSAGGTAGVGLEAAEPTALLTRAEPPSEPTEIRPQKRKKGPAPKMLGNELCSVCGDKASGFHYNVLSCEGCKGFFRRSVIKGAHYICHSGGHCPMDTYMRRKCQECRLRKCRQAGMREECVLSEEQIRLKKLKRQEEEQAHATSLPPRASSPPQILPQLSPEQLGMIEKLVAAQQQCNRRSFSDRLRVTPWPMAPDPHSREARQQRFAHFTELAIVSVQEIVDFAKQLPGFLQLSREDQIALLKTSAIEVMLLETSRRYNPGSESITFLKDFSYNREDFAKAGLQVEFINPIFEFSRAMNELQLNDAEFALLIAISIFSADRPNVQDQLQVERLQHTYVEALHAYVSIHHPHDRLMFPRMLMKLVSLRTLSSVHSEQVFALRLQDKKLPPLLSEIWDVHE
T1 sequence (P19793 1-462 partner): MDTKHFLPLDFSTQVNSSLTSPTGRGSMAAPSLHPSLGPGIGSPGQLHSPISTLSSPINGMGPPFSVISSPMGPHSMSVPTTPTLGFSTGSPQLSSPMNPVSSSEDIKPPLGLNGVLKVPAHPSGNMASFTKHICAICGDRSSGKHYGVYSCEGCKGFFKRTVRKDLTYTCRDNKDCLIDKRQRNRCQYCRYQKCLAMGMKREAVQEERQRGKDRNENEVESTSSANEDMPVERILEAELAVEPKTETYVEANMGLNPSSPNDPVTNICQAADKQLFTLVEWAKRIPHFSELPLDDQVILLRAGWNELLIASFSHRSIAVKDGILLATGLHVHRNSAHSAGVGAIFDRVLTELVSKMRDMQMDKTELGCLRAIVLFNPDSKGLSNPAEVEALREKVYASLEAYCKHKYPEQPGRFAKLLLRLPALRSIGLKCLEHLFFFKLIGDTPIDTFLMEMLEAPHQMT
In words: Liver X receptor activity test, dual-luciferase reporter gene in HEK293T cells (pSG5/hLXRα + hRXRα). The format is cell-based. To be noted: for EC50 / LXRα % Agonist effect: agonist activity. On the procedure:
as §1, §2, §3, §4, §5
Background: In a reporter assay the amount or activity of a reporter protein is the signal.

For another assay, the target named is T2, LXRβ (Homo sapiens, UniProt P55055).
T2 construct: expressed in transfected cells; host or cells: HEK293T
T2 sequence (P55055 1-460): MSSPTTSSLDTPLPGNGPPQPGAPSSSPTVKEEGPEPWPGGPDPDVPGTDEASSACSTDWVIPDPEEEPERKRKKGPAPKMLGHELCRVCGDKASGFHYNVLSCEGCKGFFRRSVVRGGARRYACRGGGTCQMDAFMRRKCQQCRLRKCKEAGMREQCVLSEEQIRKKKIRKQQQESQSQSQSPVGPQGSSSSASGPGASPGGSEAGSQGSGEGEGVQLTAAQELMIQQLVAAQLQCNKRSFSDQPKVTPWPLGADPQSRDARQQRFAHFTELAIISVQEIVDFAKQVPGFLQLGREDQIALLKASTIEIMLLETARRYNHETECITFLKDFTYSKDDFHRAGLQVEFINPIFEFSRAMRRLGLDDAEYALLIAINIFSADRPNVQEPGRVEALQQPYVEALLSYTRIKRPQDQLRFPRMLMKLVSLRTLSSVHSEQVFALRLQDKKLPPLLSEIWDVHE
T2 sequence (P19793 1-462 partner): T1 sequence (P19793 1-462 partner)
In words: Liver X receptor activity test, dual-luciferase reporter gene in HEK293T cells (pSG5/hLXRβ + hRXRα). The format is cell-based. How it is done: as §1, §2, §3, §4, §5

Where [1] appears, read: agonist activity, HEK293T reporter gene.
[2] abbreviates: inverse agonist activity, HEK293T reporter gene.

Where two headings read alike, the source gives them in different places.

The values below come from US12415810B2, “2'-isopropyl-spiro (3,3'-pyrrolidine oxindole) liver X receptor regulator, preparation method therefor, and use thereof” (SHENZHEN CELL INSPIRE PHARMACEUTICAL DEVELOPMENT CO., LTD., priority 2019, dated 2025).

For the molecule `CC(C)[C@@H]1N(C(=O)OC(C)(C)C)CC[C@@]12C(=O)N(c1cccc(-c3ccc(CO)c(S(C)(=O)=O)c3)c1)c1ccccc12` [Compound 2a-2], in the assay with liver X receptors, the “inverse activation of liver X receptors (in words)” value (“inverse activation” for short) is reported as “can inversely activate liver X receptors”.
As for `CC(C)[C@@H]1N(C(=O)OC(C)(C)C)CC[C@@]12C(=O)N(c1cccc(-c3ccc(CO)c(S(C)(=O)=O)c3)c1)c1ccccc12` [Compound 2a], the “inverse activation” value in the assay with liver X receptors was “can inversely activate liver X receptors”.
Turning to `CC(C)[C@@H]1N(C(=O)C(F)(F)F)CC[C@@]12C(=O)N(c1cccc(-c3ccc(CO)c(S(C)(=O)=O)c3)c1)c1ccccc12` [Compound 2b], the “inverse activation” value in the assay on liver X receptors was “can inversely activate liver X receptors”.
Same read-out and setting: in the case of `CC(C)[C@@H]1N(C(=O)CC(C)(C)C)CC[C@@]12C(=O)N(c1cccc(-c3ccc(CO)c(S(C)(=O)=O)c3)c1)c1ccccc12` [Compound 2c] it was “can inversely activate liver X receptors”.
Turning to `CC(C)[C@@H]1N(C(=O)C(C)(C)C)CC[C@@]12C(=O)N(c1cccc(-c3ccc(CO)c(S(C)(=O)=O)c3)c1)c1ccccc12` [Compound 2d], the “inverse activation” value in the assay on liver X receptors was “can inversely activate liver X receptors”.
What is called EC50 is the concentration at which the effect is half-maximal. With `CC(C)[C@@H]1N(C(=O)OC(C)(C)C)CC[C@@]12C(=O)N(c1cccc(-c3ccc(C(=O)N(C)C)c(Cl)c3)c1)c1ccccc12` [Compound 3a], on LXRα, the EC50 turned out to be 6920 nM and the “LXRα % Agonist effect” value stood at 53%. The “activation of liver X receptors (in words)” value in the assay on liver X receptors is reported as “can activate liver X receptors”.
For the molecule `CC(C)[C@@H]1N(C(=O)C(C)(C)C)CC[C@@]12C(=O)N(c1cccc(-c3ccc(C(=O)N(C)C)c(Cl)c3)c1)c1ccccc12` [Compound 3b], on LXRα, the EC50 came to 3670 nM and the “LXRα % Agonist effect” value turned out to be 76%. Also, at LXRβ (setting [1]), the EC50 worked out at 3040 nM and the “LXRβ % Agonist effect” value worked out at 50%. Further, the “activation of liver X receptors (in words)” value with liver X receptors is recorded as “can activate liver X receptors”.
With `CC(C)[C@@H]1N(C(=S)NC(C)(C)C)CC[C@@]12C(=O)N(c1cccc(-c3ccc(C(=O)N(C)C)c(Cl)c3)c1)c1ccccc12` [Compound 3c], the “activation of liver X receptors (in words)” value with liver X receptors is reported as “can activate liver X receptors”.
As a reminder, the IC50 is the concentration that gives 50% inhibition. Regarding `CC(C)[C@@H]1N(C(=O)CC(C)(C)C)CC[C@@]12C(=O)N(c1cccc(-c3ccc4ccn(C)c4c3)c1)c1ccccc12` [Compound 4c], the Emax on LXRβ (HEK-293T, 20 h, inverse agonist activity, HEK293T reporter gene, read-out: LXRβ % Inverse agonist effect) is 64%. For the same molecule, the IC50 on LXRβ (setting [2]) was 10100 nM.
In the case of `O=C(O)Cc1cccc(OCCCN(Cc2cccc(C(F)(F)F)c2Cl)CC(c2ccccc2)c2ccccc2)c1` [GW3965, reference compound], the EC50 was found to be 360 nM at LXRα and 210 nM at LXRβ (setting [1]). For the same molecule, the “LXRα % Agonist effect” value on LXRα is given as 100%. Also, on LXRβ, the “LXRβ % Agonist effect” value came out at 100%.
As for `CCOC(=O)c1ccc(CN(Cc2ccc(-c3cccc(S(C)(=O)=O)c3)cc2)S(=O)(=O)c2c(C)cc(C)cc2C)o1` [SR9238, reference compound], on LXRα (inverse agonist activity), the IC50 came to 160 nM and the “LXRα % Inverse agonist effect” value amounted to 93%. Further, the half-maximal inhibitory concentration (IC50) at LXRβ (setting [2]) came out at 100 nM.
